Assay results: patent US5292531A, “Dermatologial external agent” (Shiseido Company Ltd., priority 1990, dated 1994)
In brackets after ≈: the same amount, converted by molar mass. Read-outs that look alike come from different tables or passages of the source.

Legend:
[1] = test system: Propionibacterium avidum, ATCC 25577; assay: Growth inhibitory band around filter paper disc (Test Example 2); format: cell-based; details: 0.05 ml of 10% acetone solution on 8 mm disc, 37° C., 3 days, anaerobic
Procedure: Using an ABCM medium (Eikensha K. K.) as the antibacterial active medium, the medium was heated in an autoclave at a temperature of 115° C. for 15 minutes. A filter paper disc (8 mm.phi.) impregnated with 0.05 ml of 10% acetone solution of each sample was adhered to an agar plate to which Propionibacterium avidum, ATCC 25577 was previously inoculated and dispersed thereon, and anaerobically cultured at 37° C. for 3 days. The diameter of the transparent band (Propionibacterium avidum growth inhibitory band) formed around the filter paper upon completion of the culturing was measured, and the antibacterial power determined therefrom.

[2] = test system: Propionibacterium acnes standard strain (ATCC 11827); assay: Minimum growth inhibitory concentration (MIC), GAM agar medium pH 7.3±0.1 (Test Example 1); format: cell-based
Procedure: The growth inhibitory effects of tetrahydroabietic acid salts against Acne bacterium, which is a Gram-positive anaerobic bacterium were evaluated as follows.
Using a GAM agar medium produced by Nissui K. K. as the medium, after an adjustment of the pH of the medium to 7.3±0.1, a minimum growth inhibitory concentration (MIC) of sodium tetrahydroabietate and sodium salt of hydrogenated rosin, needed for a Propionibacterium acnes standard strain (ATCC 11827) was measured and evaluated.
As a Control, MIC's of substances generally known to have an antibacterial action (isopropylmethylphenol, berberine chloride, thioxolone, abietic acid) were also measured.

[3] = Cutibacterium acnes, ATCC11827, GAM agar medium, pH 7.3±0.1, read-out: MIC

Row | MIC [2, 3] | Compound | MIC ([2]; GAM agar medium, pH 7.3±0.1) | Inhibitory band diameter [1] | further results
1 | 20 µg/mL (≈ 66.1 µM) | CC(C)C1=CC2=CC[C@@H]3[C@](C)(CCC[C@@]3(C)C(=O)O)[C@H]2CC1 [Abietic acid] | – | – | zone of inhibition at 10 % ([1]; Cutibacterium avidum, ATCC25577, 72 h, read-out: Inhibitory band diameter): 15 mm
2 | – | COc1ccc2cc3[n+](cc2c1OC)CCc1cc2c(cc1-3)OCO2 [Berberline chloride, berberine chloride] | – | – | MIC ([2]; Cutibacterium acnes, ATCC11827, pH 7.3): 100 µg/mL
3 | – | Cc1cc(O)ccc1C(C)C [Isopropylmethylphenol] | 100 ppm | – | –
4 | – | CC(C)C1CC[C@H]2C(CC[C@@H]3[C@]2(C)CCC[C@@]3(C)C(=O)[O-])C1.[Na+] (stereo partly shown) [Sodium tetrahydroabietate] | 5 ppm | 17 mm | Antibacterial power compared with other antibacterial substances ([2]; Table 1, in words): far stronger antibacterial power than other antibacterial substances
5 | – | CC(C)[C@@H]1CC[C@H]2[C@@H](CC[C@@H]3[C@]2(C)CCC[C@@]3(C)C(=O)O)C1 [Tetrahydroabietic acid] | 3 ppm | 18 mm | –
6 | 50 µg/mL (≈ 297 µM) | O=c1oc2cc(O)ccc2s1 [Thioxolone] | – | – | –
